In one experiment the target is human TLR9 (Homo sapiens (Human), UniProt Q9NR96). Description: TLR9 inhibition reporter assay (HEK-Blue cells, SEAP reporter, ODN2006 stimulation).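 Also: compounds tested over 0.05 nM to 50 µM, 22 h incubation, inhibition taken as SEAP signal drop from agonist plus DMSO wells toward a known inhibitor control.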
The next experiment deals with human TLR7 (Homo sapiens (Human), UniProt Q9NYK1). Nature of the experiment: TLR7 inhibition reporter assay (HEK-Blue cells, SEAP reporter, gardiquimod stimulation). The following applies: HEK-Blue cells overexpressing human TLR7, gardiquimod 7.5 μM. Format: cell-based.
human TLR7, sequence (Q9NYK1 27-1049): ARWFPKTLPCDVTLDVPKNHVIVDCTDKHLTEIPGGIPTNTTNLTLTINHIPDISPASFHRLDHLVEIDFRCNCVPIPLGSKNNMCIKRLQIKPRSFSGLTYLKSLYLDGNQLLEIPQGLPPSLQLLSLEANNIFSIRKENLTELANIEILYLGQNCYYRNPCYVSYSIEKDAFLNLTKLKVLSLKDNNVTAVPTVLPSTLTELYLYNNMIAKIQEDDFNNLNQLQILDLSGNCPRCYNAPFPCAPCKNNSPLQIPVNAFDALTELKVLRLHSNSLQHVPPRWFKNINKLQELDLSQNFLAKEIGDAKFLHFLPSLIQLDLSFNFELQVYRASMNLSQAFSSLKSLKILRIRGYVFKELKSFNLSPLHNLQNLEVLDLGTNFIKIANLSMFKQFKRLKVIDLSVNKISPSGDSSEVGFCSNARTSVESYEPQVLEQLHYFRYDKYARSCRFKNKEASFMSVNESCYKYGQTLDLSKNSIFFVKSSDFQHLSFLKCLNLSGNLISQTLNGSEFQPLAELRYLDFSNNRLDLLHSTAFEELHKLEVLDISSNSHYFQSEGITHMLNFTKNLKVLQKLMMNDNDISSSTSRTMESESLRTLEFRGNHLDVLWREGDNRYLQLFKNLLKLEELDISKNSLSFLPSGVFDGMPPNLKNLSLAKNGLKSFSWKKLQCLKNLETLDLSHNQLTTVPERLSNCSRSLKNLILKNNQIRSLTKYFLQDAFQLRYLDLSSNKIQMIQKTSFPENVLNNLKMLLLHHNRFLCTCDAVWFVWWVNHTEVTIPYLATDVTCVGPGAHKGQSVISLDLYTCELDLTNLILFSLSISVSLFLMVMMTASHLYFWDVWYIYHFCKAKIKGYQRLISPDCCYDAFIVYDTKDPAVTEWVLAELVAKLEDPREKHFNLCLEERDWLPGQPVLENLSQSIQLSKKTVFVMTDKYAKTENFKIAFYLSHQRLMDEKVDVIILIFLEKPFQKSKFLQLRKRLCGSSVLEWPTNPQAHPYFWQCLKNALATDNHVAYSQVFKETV
For the next experiment, the target named is human TLR8 (Homo sapiens (Human), UniProt Q9NR97). Description: TLR8 inhibition reporter assay (HEK-Blue cells, SEAP reporter, R848 stimulation). (A reporter such as luciferase makes a cellular process visible.);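 also: compounds tested from 0.05 nM to 50 µM, 22 h at 37 °C, SEAP measured with HEK-Blue Detection, inhibition relative to agonist plus DMSO versus a known inhibitor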
human TLR8, sequence (Q9NR97 27-1041): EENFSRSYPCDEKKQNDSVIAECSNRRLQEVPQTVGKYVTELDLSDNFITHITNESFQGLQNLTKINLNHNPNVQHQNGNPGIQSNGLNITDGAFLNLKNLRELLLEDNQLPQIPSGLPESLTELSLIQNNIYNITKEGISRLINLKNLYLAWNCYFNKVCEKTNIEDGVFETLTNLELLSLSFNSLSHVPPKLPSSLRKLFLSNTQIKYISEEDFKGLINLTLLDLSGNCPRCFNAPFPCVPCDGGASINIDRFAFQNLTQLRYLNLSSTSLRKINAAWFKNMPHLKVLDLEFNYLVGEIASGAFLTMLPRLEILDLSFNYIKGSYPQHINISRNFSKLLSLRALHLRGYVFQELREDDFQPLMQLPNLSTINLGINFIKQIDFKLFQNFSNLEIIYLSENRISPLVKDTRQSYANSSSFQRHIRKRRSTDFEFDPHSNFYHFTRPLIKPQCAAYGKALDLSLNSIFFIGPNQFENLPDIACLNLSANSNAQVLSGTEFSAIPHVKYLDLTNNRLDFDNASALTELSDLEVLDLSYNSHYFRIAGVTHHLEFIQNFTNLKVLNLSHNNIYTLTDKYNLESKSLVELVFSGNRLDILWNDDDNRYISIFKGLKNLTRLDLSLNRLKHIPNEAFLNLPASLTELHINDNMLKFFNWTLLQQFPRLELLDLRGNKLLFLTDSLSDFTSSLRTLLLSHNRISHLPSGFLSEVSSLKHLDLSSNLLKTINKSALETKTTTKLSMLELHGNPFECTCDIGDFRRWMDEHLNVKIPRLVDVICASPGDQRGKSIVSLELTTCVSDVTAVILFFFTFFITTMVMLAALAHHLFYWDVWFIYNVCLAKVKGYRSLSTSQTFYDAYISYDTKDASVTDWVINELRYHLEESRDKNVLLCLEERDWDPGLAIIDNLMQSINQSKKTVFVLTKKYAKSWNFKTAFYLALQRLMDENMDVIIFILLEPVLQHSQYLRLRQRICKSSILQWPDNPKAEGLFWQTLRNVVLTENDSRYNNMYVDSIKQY
[1] abbreviates: read-out: TLR9 IC50, HEK-Blue cells overexpressing human TLR9, ODN2006 5 nM.
Setting [2] is: read-out: TLR8 IC50, HEK-Blue cells overexpressing human TLR8, R848 15.9 μM.

Where two headings read alike, the source gives them in different places.

human TLR9, sequence (Q9NR96 26-1032): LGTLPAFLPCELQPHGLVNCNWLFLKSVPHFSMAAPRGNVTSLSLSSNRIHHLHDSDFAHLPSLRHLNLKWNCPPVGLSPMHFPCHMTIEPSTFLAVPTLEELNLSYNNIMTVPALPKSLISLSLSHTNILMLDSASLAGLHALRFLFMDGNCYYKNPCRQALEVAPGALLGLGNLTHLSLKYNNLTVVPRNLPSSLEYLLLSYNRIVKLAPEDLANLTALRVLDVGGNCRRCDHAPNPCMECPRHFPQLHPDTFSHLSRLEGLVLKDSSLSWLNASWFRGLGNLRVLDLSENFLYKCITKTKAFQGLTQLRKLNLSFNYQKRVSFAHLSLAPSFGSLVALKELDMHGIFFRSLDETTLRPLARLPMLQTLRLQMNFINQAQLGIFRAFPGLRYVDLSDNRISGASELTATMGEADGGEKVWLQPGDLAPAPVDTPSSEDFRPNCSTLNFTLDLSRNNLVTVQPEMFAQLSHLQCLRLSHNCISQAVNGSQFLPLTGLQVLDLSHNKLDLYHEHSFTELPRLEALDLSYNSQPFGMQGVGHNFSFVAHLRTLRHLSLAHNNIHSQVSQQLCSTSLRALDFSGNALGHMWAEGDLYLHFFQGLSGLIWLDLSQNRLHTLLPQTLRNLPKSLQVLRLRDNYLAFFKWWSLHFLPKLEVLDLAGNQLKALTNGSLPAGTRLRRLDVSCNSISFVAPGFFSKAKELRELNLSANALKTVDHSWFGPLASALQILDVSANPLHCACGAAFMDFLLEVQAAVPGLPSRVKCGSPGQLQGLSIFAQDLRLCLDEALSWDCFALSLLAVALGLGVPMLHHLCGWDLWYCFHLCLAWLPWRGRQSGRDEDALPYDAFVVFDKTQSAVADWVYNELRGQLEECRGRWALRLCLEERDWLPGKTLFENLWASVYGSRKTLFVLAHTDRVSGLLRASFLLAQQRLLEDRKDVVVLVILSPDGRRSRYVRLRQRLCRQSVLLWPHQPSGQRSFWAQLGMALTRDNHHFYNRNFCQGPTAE

Consider `Cc1cc(-c2[nH]c3ccc(C4CCN(C(=O)CNCC(C)(C)O)CC4)cc3c2C(C)C)cc(C)n1` [Example 375, 1-(4-(2-(2,6-dimethylpyridin-4-yl)-3-isopropyl-1H-indol-5-yl)piperidin-1-yl)-2-((2-hydroxy-2-methylpropyl)amino)ethan-1-one], for which the 50% inhibitory concentration (IC50) came out at 1780 nM at human TLR9 (setting [1]), 13.1 nM against human TLR7 and 80.6 nM at human TLR8 (setting [2]).

For the compound `Cc1cc(-c2[nH]c3ccc(C4CCN(C(=O)CN5CCCCC5C)CC4)cc3c2C(C)C)cc(C)n1` (stereo not drawn) [Example 377, 1-(4-(2-(2,6-dimethylpyridin-4-yl)-3-isopropyl-1H-indol-5-yl)piperidin-1-yl)-2-(2-methylpiperidin-1-yl)ethan-1-one], the half-inhibitory concentration (IC50) is 514 nM at human TLR9 (setting [1]), 4.4 nM at human TLR7 and 17.5 nM on human TLR8 (setting [2]).

`Cc1cc(-c2[nH]c3ccc(C4CCN(C(=O)CN5CCCC(C)C5)CC4)cc3c2C(C)C)cc(C)n1` (stereo not drawn) [Example 378, 1-(4-(2-(2,6-dimethylpyridin-4-yl)-3-isopropyl-1H-indol-5-yl)piperidin-1-yl)-2-(3-methylpiperidin-1-yl)ethan-1-one]: the IC50 amounted to 389 nM at human TLR9 (setting [1]), 1.7 nM on human TLR7 and 11.8 nM at human TLR8 (setting [2]).

As to `Cc1cc(-c2[nH]c3ccc(C4CCN(C(=O)CN5CCNC(=O)C5)CC4)cc3c2C(C)C)cc(C)n1` [Example 379, 4-(2-(4-(2-(2,6-dimethylpyridin-4-yl)-3-isopropyl-1H-indol-5-yl)piperidin-1-yl)-2-oxoethyl) piperazin-2-one], the half-inhibitory concentration (IC50) was determined as 3920 nM on human TLR9 (setting [1]), 7.7 nM against human TLR7 and 55.2 nM at human TLR8 (setting [2]).

Regarding `Cc1cc(-c2[nH]c3ccc(C4CCN(C(=O)CN5CC[C@H](O)C5)CC4)cc3c2C(C)C)cc(C)n1` [Example 380, (S)-1-(4-(2-(2,6-dimethylpyridin-4-yl)-3-isopropyl-1H-indol-5-yl)piperidin-1-yl)-2-(3-hydroxypyrrolidin-1-yl)ethan-1-one], the IC50 at human TLR9 (setting [1]) was 354 nM; against human TLR7 it was 2 nM; at human TLR8 (setting [2]), 10.5 nM.

As for `Cc1cc(-c2[nH]c3ccc(C4CCN(C(=O)CN5CCC[C@H]5CO)CC4)cc3c2C(C)C)cc(C)n1` [Example 381, (S)-1-(4-(2-(2,6-dimethylpyridin-4-yl)-3-isopropyl-1H-indol-5-yl)piperidin-1-yl)-2-(2-(hydroxymethyl)pyrrolidin-1-yl)ethan-1-one], the concentration for half-maximal inhibition (IC50) was found to be 348 nM at human TLR9 (setting [1]), 2.2 nM on human TLR7 and 9.8 nM at human TLR8 (setting [2]).

Consider `Cc1cc(-c2[nH]c3ccc(C4CCN(C(=O)CNC(CO)CC(C)C)CC4)cc3c2C(C)C)cc(C)n1` (stereo not drawn) [Example 382, 1-(4-(2-(2,6-dimethylpyridin-4-yl)-3-isopropyl-1H-indol-5-yl)piperidin-1-yl)-2-((1-hydroxy-4-methylpentan-2-yl)amino)ethan-1-one], for which the 50% inhibitory concentration (IC50) on human TLR9 (setting [1]) worked out at 769 nM; at human TLR7 it was 7.6 nM; on human TLR8 (setting [2]), 44.1 nM.

As for `Cc1cc(-c2[nH]c3ccc(C4CCN(C(=O)CN5CCCC(O)C5)CC4)cc3c2C(C)C)cc(C)n1` (stereo not drawn) [Example 383, 1-(4-(2-(2,6-dimethylpyridin-4-yl)-3-isopropyl-1H-indol-5-yl)piperidin-1-yl)-2-(3-hydroxypiperidin-1-yl)ethan-1-one], the results for the IC50 at human TLR9 (setting [1]), on human TLR7 and at human TLR8 (setting [2]) were 572 nM, 1.7 nM and 11.1 nM, respectively.

Consider `Cc1cc(-c2[nH]c3ccc(C4CCN(C(=O)CN(C)C5CCCCC5)CC4)cc3c2C(C)C)cc(C)n1` [Example 384, 2-(cyclohexyl (methyl)amino)-1-(4-(2-(2,6-dimethylpyridin-4-yl)-3-isopropyl-1H-indol-5-yl)piperidin-1-yl)ethan-1-one], for which the concentration for half-maximal inhibition (IC50) was 630 nM on human TLR9 (setting [1]), 14.4 nM at human TLR7 and 57 nM on human TLR8 (setting [2]).

Regarding `Cc1cc(-c2[nH]c3ccc(C4CCN(C(=O)CNC5CCCOC5)CC4)cc3c2C(C)C)cc(C)n1` (stereo not drawn) [Example 385, 1-(4-(2-(2,6-dimethylpyridin-4-yl)-3-isopropyl-1H-indol-5-yl)piperidin-1-yl)-2-((tetrahydro-2H-pyran-3-yl)amino)ethan-1-one], the IC50 came out at 539 nM on human TLR9 (setting [1]), 3.2 nM on human TLR7 and 22 nM on human TLR8 (setting [2]).

Regarding `Cc1cc(-c2[nH]c3ccc(C4CCN(C(=O)CNC5CCOCC5)CC4)cc3c2C(C)C)cc(C)n1` [Example 386, 1-(4-(2-(2,6-dimethylpyridin-4-yl)-3-isopropyl-1H-indol-5-yl)piperidin-1-yl)-2-((tetrahydro-2H-pyran-4-yl)amino)ethan-1-one], the concentration for half-maximal inhibition (IC50) on human TLR9 (setting [1]) is 280 nM; on human TLR7, 3.6 nM; on human TLR8 (setting [2]), 17.7 nM.

For `Cc1cc(-c2[nH]c3ccc(C4CCN(C(=O)CNC5CCOC5)CC4)cc3c2C(C)C)cc(C)n1` (stereo not drawn) [Example 387, 1-(4-(2-(2,6-dimethylpyridin-4-yl)-3-isopropyl-1H-indol-5-yl)piperidin-1-yl)-2-((tetrahydrofuran-3-yl)amino)ethan-1-one], the results for the IC50 at human TLR9 (setting [1]), on human TLR7 and at human TLR8 (setting [2]) were 909 nM, 0.6 nM and 13.3 nM, respectively.

For the compound `Cc1cc(-c2[nH]c3ccc(C4CCN(C(=O)CN5CCC(F)CC5)CC4)cc3c2C(C)C)cc(C)n1` [Example 388, 1-(4-(2-(2,6-dimethylpyridin-4-yl)-3-isopropyl-1H-indol-5-yl)piperidin-1-yl)-2-(4-fluoropiperidin-1-yl)ethan-1-one], the values for the IC50 at human TLR9 (setting [1]), against human TLR7 and at human TLR8 (setting [2]) were 831 nM, 4.3 nM and 20.9 nM, respectively.

Turning to `Cc1cc(-c2[nH]c3ccc(C4CCN(C(=O)CN5CC6CCC(C5)O6)CC4)cc3c2C(C)C)cc(C)n1` [Example 389, 2-(8-oxa-3-azabicyclo[3.2.1]octan-3-yl)-1-(4-(2-(2,6-dimethylpyridin-4-yl)-3-isopropyl-1H-indol-5-yl)piperidin-1-yl)ethan-1-one], the results for the concentration for half-maximal inhibition (IC50) on human TLR9 (setting [1]), at human TLR7 and on human TLR8 (setting [2]) were 880 nM, 10.3 nM and 31.3 nM, respectively.

On to `Cc1cc(-c2[nH]c3ccc(C4CCN(C(=O)CN5CCCC(F)(F)C5)CC4)cc3c2C(C)C)cc(C)n1` [Example 390, 2-(3,3-difluoropiperidin-1-yl)-1-(4-(2-(2,6-dimethylpyridin-4-yl)-3-isopropyl-1H-indol-5-yl)piperidin-1-yl)ethan-1-one], for which the 50% inhibitory concentration (IC50) turned out to be 25800 nM at human TLR9 (setting [1]), 17.9 nM against human TLR7 and 191 nM on human TLR8 (setting [2]).

As to `Cc1cc(-c2[nH]c3ccc(C4CCN(C(=O)CN5CC[C@@H](O)C5)CC4)cc3c2C(C)C)cc(C)n1` [Example 391, (R)-1-(4-(2-(2,6-dimethylpyridin-4-yl)-3-isopropyl-1H-indol-5-yl)piperidin-1-yl)-2-(3-hydroxypyrrolidin-1-yl)ethan-1-one], the IC50 was determined as 691 nM at human TLR9 (setting [1]), 1.3 nM on human TLR7 and 6.4 nM on human TLR8 (setting [2]).

With `CCC(C)NCC(=O)N1CCC(c2ccc3[nH]c(-c4cc(C)nc(C)c4)c(C(C)C)c3c2)CC1` (stereo not drawn) [Example 392, 2-(sec-butylamino)-1-(4-(2-(2,6-dimethylpyridin-4-yl)-3-isopropyl-1H-indol-5-yl)piperidin-1-yl)ethan-1-one], the IC50 at human TLR9 (setting [1]) came to 253 nM; at human TLR7, 3.2 nM; at human TLR8 (setting [2]), 10.4 nM.

Turning to `Cc1cc(-c2[nH]c3ccc(C4CCN(C(=O)CNCCC(C)C)CC4)cc3c2C(C)C)cc(C)n1` [Example 393, 1-(4-(2-(2,6-dimethylpyridin-4-yl)-3-isopropyl-1H-indol-5-yl)piperidin-1-yl)-2-(isopentylamino)ethan-1-one], the IC50 against human TLR9 (TLR9 IC50, HEK-Blue cells overexpressing human TLR9, ODN2006 5 nM) came out at 800 nM; against human TLR7 it was 7.9 nM; against human TLR8 (TLR8 IC50, HEK-Blue cells overexpressing human TLR8, R848 15.9 μM), 37.8 nM.

For the compound `Cc1cc(-c2[nH]c3ccc(C4CCN(C(=O)CN5C[C@@H](C(F)(F)F)C[C@H]5CO)CC4)cc3c2C(C)C)cc(C)n1` [Example 394, 1-(4-(2-(2,6-dimethylpyridin-4-yl)-3-isopropyl-1H-indol-5-yl)piperidin-1-yl)-2-((2S,4S)-2-(hydroxymethyl)-4-(trifluoromethyl)pyrrolidin-1-yl)ethan-1-one], the IC50 on human TLR9 (setting [1]) was determined as 833 nM; on human TLR7 it was 14.6 nM; on human TLR8 (setting [2]), 152 nM.

On to `CO[C@@H]1C[C@H](CO)N(CC(=O)N2CCC(c3ccc4[nH]c(-c5cc(C)nc(C)c5)c(C(C)C)c4c3)CC2)C1` [Example 395, 1-(4-(2-(2,6-dimethylpyridin-4-yl)-3-isopropyl-1H-indol-5-yl)piperidin-1-yl)-2-((2R,4R)-2-(hydroxymethyl)-4-methoxypyrrolidin-1-yl)ethan-1-one], for which the 50% inhibitory concentration (IC50) was 995 nM on human TLR9 (setting [1]), 9.7 nM at human TLR7 and 41.1 nM at human TLR8 (setting [2]).

Take `Cc1cc(-c2[nH]c3ccc(C4CCN(C(=O)CN(CCO)Cc5ccccc5)CC4)cc3c2C(C)C)cc(C)n1` [Example 396, 2-(benzyl(2-hydroxyethyl)amino)-1-(4-(2-(2,6-dimethylpyridin-4-yl)-3-isopropyl-1H-indol-5-yl)piperidin-1-yl)ethan-1-one]: the values for the IC50 at human TLR9 (setting [1]), on human TLR7 and at human TLR8 (setting [2]) were 1600 nM, 4.4 nM and 55.2 nM, respectively.

On to `CCN(CCO)CC(=O)N1CCC(c2ccc3[nH]c(-c4cc(C)nc(C)c4)c(C(C)C)c3c2)CC1` [Example 397, 1-(4-(2-(2,6-dimethylpyridin-4-yl)-3-isopropyl-1H-indol-5-yl)piperidin-1-yl)-2-(ethyl(2-hydroxyethyl)amino)ethan-1-one], for which the results for the half-inhibitory concentration (IC50) at human TLR9 (setting [1]), against human TLR7 and at human TLR8 (setting [2]) were 705 nM, 2.2 nM and 18.6 nM, respectively.

Regarding `CCCN(CCO)CC(=O)N1CCC(c2ccc3[nH]c(-c4cc(C)nc(C)c4)c(C(C)C)c3c2)CC1` [Example 398, 1-(4-(2-(2,6-dimethylpyridin-4-yl)-3-isopropyl-1H-indol-5-yl)piperidin-1-yl)-2-((2-hydroxyethyl)(propyl)amino)ethan-1-one], the half-maximal inhibitory concentration (IC50) came out at 771 nM at human TLR9 (setting [1]), 3.5 nM against human TLR7 and 26 nM at human TLR8 (setting [2]).

What is called IC50 is the point on the concentration scale where inhibition reaches its midpoint.

The record behind these values is US10660877B2 (BRISTOL-MYERS SQUIBB COMPANY, priority 2016, dated 2020).
